The results in this text go back to patent US11406699B2 (priority 2019, dated 2022).

One data set has as its system EEEV FL93-939 TaV-nLuc. Kind of data set: microbe, parasite or virus in culture. The data set is classed as cell-based. As to conditions: Eastern equine encephalitis virus, Vero, 24 h.
Another data set has as its system CHIKV. The format is cell-based, chikungunya virus.
For a further data set, the system named is VEEV ZPC738 TaV-nLuc. As to the kind of experiment: microbe, parasite or virus in culture. The format is cell-based. As to conditions: Venezuelan equine encephalitis virus, Vero, 24 h.
A short description of a further data set: in vitro. Particulars: African green monkey.
The subject of another data set is SINV. The format is cell-based, Sindbis virus.
Data set [1] deals with VEEV TC-83. As to the kind of experiment: microbe, parasite or virus in culture. Particulars: Venezuelan equine encephalitis virus, Vero, read-out: effective concentration 50% (EC50). The data set is classed as cell-based.
For data set [2], the system named is VEEV TC-83. The data set is classed as cell-based, Venezuelan equine encephalitis virus.

Structures are written as SMILES. pEC50: −log10 of the molar value. Several values for one entry are separate records, joined by “and”; a condition that tells them apart may be missing. Identical values can stand only once. Some results are limits rather than exact numbers.

On to `CC(=O)c1c(O)c(C)c(O)c(Cc2c(O)c3c(c(C(=O)/C=C/c4ccccc4)c2O)OC(C)(C)C=C3)c1O` [Rottlerin], for which the results for the pEC50 in the data set on EEEV FL93-939 TaV-nLuc, in the data set on VEEV ZPC738 TaV-nLuc and in the data set with VEEV TC-83 [1] were 5.77, 5.96 and over 6.00, respectively. Besides, in the data set with CHIKV, the “decrease in CHIKV replication” value amounted to 3 log. In addition, the CC50 in “in vitro” was found to be 63 µM. The “decrease in SINV replication” value in the data set on SINV was determined as 5 log. The “decrease in VEEV TC-83 replication” value in the data set with VEEV TC-83 [2] is 2 log and 3 log.
